{"source": "paper PMC4076079", "about": "“Selective inhibitors of a PAF biosynthetic enzyme lysophosphatidylcholine acyltransferase 2” (Journal of Lipid Research, 2014)", "type_in_all_cases": "biochemical", "key": {"hLPCAT2": {"molecular_target": "T1, hLPCAT2 (Homo sapiens, UniProt Q7L5N7)", "T1 construct": "expressed in transfected cells; host or cells: CHO-S-PAFR cells (microsomal fraction), with or without mcPAF stimulation", "T1 sequence (Q7L5N7 1-544)": "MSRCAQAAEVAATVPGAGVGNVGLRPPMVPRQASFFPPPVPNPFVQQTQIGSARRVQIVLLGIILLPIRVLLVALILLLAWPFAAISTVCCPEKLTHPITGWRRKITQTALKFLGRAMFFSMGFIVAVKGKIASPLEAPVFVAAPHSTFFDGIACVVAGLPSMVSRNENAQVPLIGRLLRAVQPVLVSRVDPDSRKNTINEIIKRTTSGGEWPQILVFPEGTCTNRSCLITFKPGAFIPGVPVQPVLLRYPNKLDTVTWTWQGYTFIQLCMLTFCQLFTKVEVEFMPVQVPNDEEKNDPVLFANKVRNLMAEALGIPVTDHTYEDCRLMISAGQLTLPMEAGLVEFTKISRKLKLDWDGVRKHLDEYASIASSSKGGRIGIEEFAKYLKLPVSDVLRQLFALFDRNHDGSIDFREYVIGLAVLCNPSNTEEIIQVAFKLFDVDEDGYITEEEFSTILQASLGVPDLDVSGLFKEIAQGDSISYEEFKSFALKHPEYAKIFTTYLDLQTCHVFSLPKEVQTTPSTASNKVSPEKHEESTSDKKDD", "experiment": "lyso-PAFAT (acetyltransferase) activity assay, PAF product by LC-MS/MS", "settings": "for IC50: 0, 0.2, 0.6, 2, 6 and 20 μM of each compound in triplicate, LC-MS/MS, read-out: IC50, product PAF, enzyme hLPCAT2; for percentage inhibition, product PAF, hLPCAT2: 20 μM compound, microsomal fractions of nonstimulated CHO-S-PAFR cells, n = 3, mean ± SEM; for selectivity for hLPCAT2 over hLPCAT1: from IC50 values of Table 1", "method": "(§1) Microsomal protein fractions (0.5 μg) supplemented with the indicated compound concentrations were added to the reaction mixture containing 100 mM Tris-HCl (pH 7.4), 1 μM CaCl2, 0.015% Tween-20, and two substrates. For acetyltransferase activity, the substrates were 1 mM acetyl-CoA and 5 μM d4-lyso-PAF; for the acyltransferase activity of LPCAT1 or LPCAT2, the substrates were, respectively, palmitoyl-CoA and d31-16:0 LPC or arachidonoyl-CoA and d4-lyso-PAF (all 5 μM). Each lysophospholipid contained fatty acid at the sn-1 position. After incubation at 37°C for 5 min, the reactions were stopped by adding 300 μl methanol containing 17:0 LPC or 14:0/14:0 PC as an internal standard. Deuterium-labeled products were analyzed by LC-MS/MS (Waters, Milford, MA and Thermo Scientific, Waltham, MA). […]\nSteps 2 to 5 screening: 96-well plate assay\nAcetyltransferase and acyltransferase assays were developed in 96-well plates. The microsomal hLPCAT2, obtained from mcPAF-stimulated CHO-S-PAFR cells was used in steps 1, 2, and 5. The microsomal hLPCAT1 obtained from unstimulated CHO-S cells was used in steps 3 to 5. Each well of the 96-well plates contained 30 µl of 15 µg/ml protein, 600 nl of 2 mM compound, 30 µl buffer C, and two substrates (Fig. 1B and C).\nSubstrate concentrations were as follows: acetyl-CoA, 250 or 1000 µM acetyl-CoA; […]\narachidonoyl-CoA, 5 µM; palmitoyl-CoA, 5 µM; d4-lyso-PAF, 5 µM; and d31-LPC, 5 µM.\nFor step 5, compound concentrations were 0, 0.167, 0.67, 2, 6.7, and 20 µM. The deuterium-labeled products were measured by LC-MS/MS. Percentage inhibition (steps 2 to 4) or IC50 (step 5) was used as the hit criterion.\nStep 6 screening: BSA assay\nThe acetyltransferase assay was performed with 20 µM of each compound and microsomal hLPCAT2 from step 1. The assay mixture contained 0.4% BSA and two substrates for lyso-PAFAT activity: 1 mM acetyl-CoA and 5 µM d4-lyso-PAF. Percentage inhibition values were determined.\n(§2) Step 7 screening: species-specific differences\n(§3) To evaluate the effects on the activity of mouse or human LPCAT1 and LPCAT2, each microsomal fraction was obtained using CHO-S-PAFR cells with or without mcPAF (200 nM) stimulation for 5 min. Acetyltransferase and acyltransferase assays were performed with 20 µM of each compound. Percentage inhibition was calculated in each"}, "mLPCAT2": {"molecular_target": "T2, mLPCAT2 (Mus musculus, UniProt Q8BYI6)", "T2 construct": "expressed in transfected cells; host or cells: CHO-S-PAFR cells, microsomal fraction, with or without mcPAF stimulation", "T2 sequence (Q8BYI6 1-544)": "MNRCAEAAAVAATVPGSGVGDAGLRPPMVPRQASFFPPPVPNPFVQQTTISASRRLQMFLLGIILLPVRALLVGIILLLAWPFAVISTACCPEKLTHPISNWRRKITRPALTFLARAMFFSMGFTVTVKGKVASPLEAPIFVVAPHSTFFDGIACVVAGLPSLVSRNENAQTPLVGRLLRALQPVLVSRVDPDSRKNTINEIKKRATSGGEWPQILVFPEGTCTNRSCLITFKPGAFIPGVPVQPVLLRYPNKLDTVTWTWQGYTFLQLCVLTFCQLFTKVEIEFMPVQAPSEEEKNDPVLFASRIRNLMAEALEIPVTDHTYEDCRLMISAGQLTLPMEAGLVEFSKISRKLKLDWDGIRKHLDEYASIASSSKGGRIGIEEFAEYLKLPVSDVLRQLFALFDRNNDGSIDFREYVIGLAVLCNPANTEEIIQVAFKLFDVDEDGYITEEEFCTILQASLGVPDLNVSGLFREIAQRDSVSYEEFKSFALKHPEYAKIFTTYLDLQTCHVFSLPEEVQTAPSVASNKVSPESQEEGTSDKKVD", "experiment": "acyltransferase activity assay, 16:0/20:4 alkyl-PC product", "settings": "20 μM compound; microsomal fractions of nonstimulated CHO-S-PAFR cells; n = 3, mean ± SEM", "method": "as §1\n(§4) arachidonoyl-CoA, 5 µM; palmitoyl-CoA, 5 µM; d4-lyso-PAF, 5 µM; and d31-LPC, 5 µM. […]\n(§5) deuterium-labeled products were measured by LC-MS/MS. […]\nas §2, §3"}, "mLPCAT1": {"molecular_target": "T3, mLPCAT1 (Mus musculus, UniProt Q3TFD2)", "T3 construct": "expressed in transfected cells; host or cells: CHO-S-PAFR cells, microsomal fraction", "T3 sequence (Q3TFD2 1-534)": "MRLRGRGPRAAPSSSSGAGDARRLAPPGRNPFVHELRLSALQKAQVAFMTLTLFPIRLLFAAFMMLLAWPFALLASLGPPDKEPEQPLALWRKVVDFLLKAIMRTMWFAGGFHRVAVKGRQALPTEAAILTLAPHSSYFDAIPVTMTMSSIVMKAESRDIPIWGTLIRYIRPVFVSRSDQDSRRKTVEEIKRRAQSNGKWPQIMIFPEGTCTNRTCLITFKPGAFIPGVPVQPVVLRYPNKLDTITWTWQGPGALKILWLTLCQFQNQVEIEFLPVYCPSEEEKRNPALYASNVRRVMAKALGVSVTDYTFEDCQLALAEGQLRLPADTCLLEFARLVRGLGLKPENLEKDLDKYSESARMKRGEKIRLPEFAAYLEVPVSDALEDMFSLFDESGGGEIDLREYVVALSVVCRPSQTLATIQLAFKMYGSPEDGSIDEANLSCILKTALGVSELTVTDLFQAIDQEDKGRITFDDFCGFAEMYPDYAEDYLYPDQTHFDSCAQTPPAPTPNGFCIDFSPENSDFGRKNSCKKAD", "experiment": "acyltransferase activity assay, DPPC product", "settings": "20 μM compound; microsomal fractions of nonstimulated CHO-S-PAFR cells; n = 3, mean ± SEM", "method": "as §1, §4, §5, §2, §3"}}, "note": "Several values for one entry are separate records, joined by “and”; a condition that tells them apart may be missing. Equal values may be shown once."}
{"molecule": "CC(C)OC(=O)c1ccc(N2C(=O)C(Cl)=C(Cl)C2=O)cc1", "note": "[TSI-01, propan-2-yl 4-(3,4-dichloro-2,5-dioxopyrrol-1-yl)benzoate]", "values": [{"measurement": "IC50", "setting": "hLPCAT2", "result": 470, "unit": "nM"}, {"measurement": "percentage inhibition, product PAF, hLPCAT2", "setting": "hLPCAT2", "result": "99.8 ± 0.1", "unit": "percentage"}, {"measurement": "selectivity for hLPCAT2 over hLPCAT1", "setting": "hLPCAT2", "result": "approximately 10 fold"}, {"measurement": "percentage inhibition, product 16:0/20:4 Alkyl-PC, mLPCAT2", "setting": "mLPCAT2", "result": "95.5 ± 1.8", "unit": "percentage"}, {"measurement": "percentage inhibition, product DPPC, mLPCAT1", "setting": "mLPCAT1", "result": "28.2 ± 4.0", "unit": "percentage"}]}
{"molecule": "O=C1C(Cl)=C(N2CCOCC2)C(=O)N1c1ccc(Oc2ccccc2)cc1", "note": "[TSI-02, 3-chloro-4-morpholin-4-yl-1-(4-phenoxyphenyl)pyrrole-2,5-dione]", "values": [{"measurement": "IC50", "setting": "hLPCAT2", "result": 2170, "unit": "nM"}]}
{"molecule": "CC(C)OC(=O)c1ccc(N2C(=O)C(Cl)=C(Nc3ccccc3O)C2=O)cc1", "note": "[TSI-07]", "values": [{"measurement": "IC50", "setting": "hLPCAT2", "result": 5500, "unit": "nM"}, {"measurement": "percentage inhibition, product PAF, hLPCAT2", "setting": "hLPCAT2", "result": "90.8 ± 3.0", "unit": "percentage"}, {"measurement": "selectivity for hLPCAT2 over hLPCAT1", "setting": "hLPCAT2", "result": "approximately 10 fold"}, {"measurement": "percentage inhibition, product 16:0/20:4 Alkyl-PC, mLPCAT2", "setting": "mLPCAT2", "result": "82.4 ± 5.7", "unit": "percentage"}, {"measurement": "percentage inhibition, product DPPC, mLPCAT1", "setting": "mLPCAT1", "result": "36.3 ± 5.7", "unit": "percentage"}]}
{"molecule": "CCCOC(=O)c1ccc(N2C(=O)C(Cl)=C(Cl)C2=O)cc1", "note": "[TSI-10]", "values": [{"measurement": "IC50", "setting": "hLPCAT2", "result": "~100 nM and 130 nM"}, {"measurement": "percentage inhibition, product PAF, hLPCAT2", "setting": "hLPCAT2", "result": "99.5 ± 0.2", "unit": "percentage"}, {"measurement": "selectivity for hLPCAT2 over hLPCAT1", "setting": "hLPCAT2", "result": "approximately 10 fold"}, {"measurement": "percentage inhibition, product 16:0/20:4 Alkyl-PC, mLPCAT2", "setting": "mLPCAT2", "result": "86.7 ± 5.2", "unit": "percentage"}, {"measurement": "percentage inhibition, product DPPC, mLPCAT1", "setting": "mLPCAT1", "result": "14.8 ± 10.9", "unit": "percentage"}]}
{"molecule": "CCCCOC(=O)c1ccc(N2C(=O)C(Cl)=C(Cl)C2=O)cc1", "note": "[TSI-11, butyl 4-(3,4-dichloro-2,5-dioxopyrrol-1-yl)benzoate]", "values": [{"measurement": "IC50", "setting": "hLPCAT2", "result": "~100 nM and 140 nM"}, {"measurement": "percentage inhibition, product PAF, hLPCAT2", "setting": "hLPCAT2", "result": "99.4 ± 0.2", "unit": "percentage"}, {"measurement": "selectivity for hLPCAT2 over hLPCAT1", "setting": "hLPCAT2", "result": "approximately 10 fold"}, {"measurement": "percentage inhibition, product 16:0/20:4 Alkyl-PC, mLPCAT2", "setting": "mLPCAT2", "result": "83.0 ± 3.5", "unit": "percentage"}, {"measurement": "percentage inhibition, product DPPC, mLPCAT1", "setting": "mLPCAT1", "result": "12.2 ± 20.5", "unit": "percentage"}]}
